Results taken from ChEMBL document CHEMBL5506041, “Identification of 1,3,4-Thiadiazolyl-Containing Thiazolidine-2,4-dione Derivatives as Novel PTP1B Inhibitors with Antidiabetic Activity” (J Med Chem, 2024).
Calls of active or inactive are those of the source. The rule behind the calls is not given here.

Experiments:
[1] = test system: Mus musculus; assay: Hypoglycemic activity in streptozotocin-induced C57/6J mouse model assessed as reduction in fasting blood glucose level at 50 mg/kg, ip administered once a week and fasted for 12 hrs; assay type: functional, organism-based
[2] = target: T1, Tyrosine-protein phosphatase non-receptor type 1 (Homo sapiens, UniProt P18031); assay: Inhibition of PTP1B (unknown origin) using DiFMUP as substrate incubated for 10 mins by fluorescence based analysis
T1 sequence (P18031 whole entry): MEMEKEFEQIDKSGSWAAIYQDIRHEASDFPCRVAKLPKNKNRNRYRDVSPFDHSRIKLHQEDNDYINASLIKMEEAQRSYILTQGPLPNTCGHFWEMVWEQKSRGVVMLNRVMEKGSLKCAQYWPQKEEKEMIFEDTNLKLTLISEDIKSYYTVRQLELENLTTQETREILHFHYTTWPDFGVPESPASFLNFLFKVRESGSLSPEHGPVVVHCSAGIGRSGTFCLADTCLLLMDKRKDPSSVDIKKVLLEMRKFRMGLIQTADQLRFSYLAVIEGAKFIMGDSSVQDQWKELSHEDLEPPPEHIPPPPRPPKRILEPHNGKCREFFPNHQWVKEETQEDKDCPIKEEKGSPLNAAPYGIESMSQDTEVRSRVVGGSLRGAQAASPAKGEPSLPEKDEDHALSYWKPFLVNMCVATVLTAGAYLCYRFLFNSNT

[3] = target: T2, Tyrosine-protein phosphatase non-receptor type 1 (Homo sapiens) (UniProt P18031); assay: Potency index, ratio of lithocholic acid IC50 to test compound IC50 for inhibition of PTP1B (unknown origin) using DiFMUP as substrate incubated for 10 mins by fluorescence based analysis
T2 sequence (whole entry): T1 sequence (P18031 whole entry)

[4] = target: T2, Tyrosine-protein phosphatase non-receptor type 1 (Homo sapiens); assay: Reversible inhibition of PTP1B1 (unknown origin) upto 1 uM by Lineweaver-burk plot analysis
[5] = test system: HepG2; assay: Inhibition of insulin resistance in palmitic acid-induced human HepG2 cells assessed as upregulation of IRS1 expression incubated for 24 hrs followed by insulin addition for 10 mins; assay type: functional, cell-based; conditions: dose 2-20 µM
[6] = test system: Mus musculus; assay: Hypoglycemic activity in streptozotocin-induced C57/6J mouse model assessed as reduction in fasting blood glucose level at 25 to 50 mg/kg, ip administered once a week and fasted for 12 hrs; assay type: functional, organism-based; conditions: dose 25-50 mg/kg
[7] = test system: Mus musculus; assay: Anti-diabetic activity in streptozotocin-induced C57/6J mouse model assessed as reduction in triglyceride level in serum at 25 to 50 mg/kg, ip administered for 4 weeks; assay type: functional, organism-based; conditions: dose 25-50 mg/kg
[8] = test system: Mus musculus; assay: Anti-diabetic activity in streptozotocin-induced C57/6J mouse model assessed as reduction in total cholesterol level in serum at 25 to 50 mg/kg, ip administered for 4 weeks; assay type: functional, organism-based; conditions: dose 25-50 mg/kg
[9] = test system: HEK293; assay: Cytotoxicity activity against HEK293 cells upto 32 uM by MTT assay; assay type: toxicity, cell-based; conditions: human, hek293, 32 µM
[10] = test system: Mus musculus; assay: Anti-diabetic activity in streptozotocin-induced C57/6J mouse model assessed as reduction in fasted blood glucose level at 50 mg/kg, ip preadministered with compound for 3 weeks followed by fasting for 12 hrs and measured after 120 mins post glucose administration by OGTT analysis; assay type: functional, organism-based; conditions: time 518.0 hrs
[11] = target: T2, Tyrosine-protein phosphatase non-receptor type 1 (Homo sapiens); assay: Noncompetitive inhibition of PTP1B1 (unknown origin) upto 1 uM by Lineweaver-burk plot analysis
[12] = test system: L02; assay: Cytotoxicity activity against human L02 cells upto 32 uM by MTT assay; assay type: toxicity, cell-based; conditions: l02, 32 µM
[13] = test system: HepG2; assay: Inhibition of insulin resistance in palmitic acid-induced human HepG2 cells assessed as upregulation of AKT expression incubated for 24 hrs followed by insulin addition for 10 mins; assay type: functional, cell-based; conditions: dose 2-20 µM

| SMILES | IC50 [2] [nM] | also measured |
| --- | --- | --- |
| C[C@H]1O[C@H](O[C@H]2[C@H](O)[C@@H](O)[C@@H](O[C@H]3[C@H](O)[C@@H](O)C(O)O[C@@H]3CO)O[C@@H]2CO)[C@H](O)[C@@H](O)[C@@H]1N[C@H]1C=C(CO)[C@@H](O)[C@H](O)[C@H]1O (some centres undefined) | – | Activity [1]: Active |
| O=C1NC(=O)/C(=C\c2ccc(C(=O)Nc3nnc(SCc4cccc(OC(F)(F)F)c4)s3)cc2)S1 | 1480 | – |
| COc1cccc(CSc2nnc(NC(=O)c3ccc(/C=C4/SC(=O)NC4=O)cc3)s2)c1 | 3220 | – |
| O=C1NC(=O)/C(=C\c2ccc(C(=O)Nc3nnc(SCc4ccc([N+](=O)[O-])cc4)s3)cc2)S1 | 1820 | – |
| O=C1NC(=O)/C(=C\c2ccc(C(=O)Nc3nnc(SCc4ccccc4-c4ccccc4)s3)cc2)S1 | 3560 | – |
| O=C1NC(=O)/C(=C\c2ccc(C(=O)Nc3nnc(SCc4cccc(F)c4)s3)cc2)S1 | 2080 | – |
| Cc1cccc(CSc2nnc(NC(=O)c3ccc(/C=C4/SC(=O)NC4=O)cc3)s2)c1 | 3850 | – |
| O=C1NC(=O)/C(=C/c2ccc(C(=O)Nc3nnc(SCc4ccc(C(F)(F)F)cc4)s3)cc2)S1 | 910 | – |
| N#Cc1cccc(CSc2nnc(NC(=O)c3ccc(/C=C4/SC(=O)NC4=O)cc3)s2)c1 | 610 | – |
| COC(=O)c1cccc(CSc2nnc(NC(=O)c3ccc(/C=C4/SC(=O)NC4=O)cc3)s2)c1 | 1120 | – |
| O=C1NC(=O)/C(=C\c2ccc(C(=O)Nc3nnc(SCc4ccccc4Br)s3)cc2)S1 | 1870 | – |
| N#Cc1ccc(CSc2nnc(NC(=O)c3ccc(/C=C4/SC(=O)NC4=O)cc3)s2)cc1 | 410 | Ratio IC50 [3]: 23.5; inhibition [4]: Active; inhibition [5]: Dose-Dependent Effect; Activity [6]: Active; Activity [7]: Active; Activity [8]: Active; Activity [9]: Non-Toxic; Activity [10]: Active; inhibition [11]: Active; Activity [12]: Non-Toxic; inhibition [13]: Dose-Dependent Effect |
| COC(=O)c1ccccc1CSc1nnc(NC(=O)c2ccc(/C=C3/SC(=O)NC3=O)cc2)s1 | 1210 | – |
| O=C1NC(=O)/C(=C\c2ccc(C(=O)Nc3nnc(SCc4ccc(Cl)cc4)s3)cc2)S1 | 1390 | – |
| O=C1NC(=O)/C(=C\c2ccc(C(=O)Nc3nnc(SCc4ccccc4Cl)s3)cc2)S1 | 2910 | – |
| O=C1NC(=O)/C(=C\c2ccc(C(=O)Nc3nnc(SCc4ccc(F)cc4)s3)cc2)S1 | 1840 | – |
| O=C1NC(=O)/C(=C\c2ccc(C(=O)Nc3nnc(SCc4cccc([N+](=O)[O-])c4)s3)cc2)S1 | 3760 | – |
| O=C1NC(=O)/C(=C/c2ccc(C(=O)Nc3nnc(SCc4ccc(F)c(F)c4F)s3)cc2)S1 | 1130 | – |
| CS(=O)(=O)c1ccc(CSc2nnc(NC(=O)c3ccc(/C=C4\SC(=O)NC4=O)cc3)s2)cc1 | 1410 | – |
| O=C1NC(=O)/C(=C\c2ccc(C(=O)Nc3nnc(SCc4cccc(Cl)c4)s3)cc2)S1 | 1640 | – |
| CC(C)(C)c1ccc(CSc2nnc(NC(=O)c3ccc(/C=C4\SC(=O)NC4=O)cc3)s2)cc1 | 1350 | – |
| O=C1NC(=O)/C(=C/c2ccc(C(=O)Nc3nnc(SCc4ccc(-c5ccccc5)cc4)s3)cc2)S1 | 1470 | – |
| C[C@H](CCC(=O)O)[C@H]1CC[C@H]2[C@@H]3CC[C@@H]4C[C@H](O)CC[C@]4(C)[C@H]3CC[C@]12C [LITHOCHOLIC ACID] | 9620 | – |
| O=C1NC(=O)/C(=C/c2ccc(C(=O)Nc3nnc(SCc4ccc(F)cc4Cl)s3)cc2)S1 | 1070 | – |
| O=C1NC(=O)/C(=C/c2ccc(C(=O)Nc3nnc(SCc4ccc(F)cc4F)s3)cc2)S1 | 1240 | – |
| O=C1NC(=O)/C(=C\c2ccc(C(=O)Nc3nnc(SCc4ccccc4F)s3)cc2)S1 | 1850 | – |
| O=C1NC(=O)/C(=C\c2ccc(C(=O)Nc3nnc(SCc4ccccc4[N+](=O)[O-])s3)cc2)S1 | 4090 | – |
| O=C1NC(=O)/C(=C/c2ccc(C(=O)Nc3nnc(SCc4ccc5ccccc5c4)s3)cc2)S1 | 3770 | – |
| O=C1NC(=O)/C(=C\c2ccc(C(=O)Nc3nnc(SCc4ccccc4OC(F)(F)F)s3)cc2)S1 | 1320 | – |

Now from value to molecule, other results behind:

| IC50 [2] [nM] | SMILES | also measured |
| --- | --- | --- |
| 750 | O=C1NC(=O)/C(=C/c2ccc(C(=O)Nc3nnc(SCc4ccc(F)c(F)c4)s3)cc2)S1 | – |
| 1070 | O=C1NC(=O)/C(=C\c2ccc(C(=O)Nc3nnc(SCc4cccc(C(F)(F)F)c4)s3)cc2)S1 | – |
| 880 | Cc1ccc(CSc2nnc(NC(=O)c3ccc(/C=C4/SC(=O)NC4=O)cc3)s2)cc1 | – |
| 980 | O=C1NC(=O)/C(=C/c2ccc(C(=O)Nc3nnc(SCc4ccc5ncccc5c4)s3)cc2)S1 | – |
| 1270 | O=C1NC(=O)/C(=C\c2ccc(C(=O)Nc3nnc(SCc4ccccc4)s3)cc2)S1 | – |
| 890 | O=C1NC(=O)/C(=C\c2ccc(C(=O)Nc3nnc(SCc4cccc(Br)c4)s3)cc2)S1 | – |
| 820 | O=C1NC(=O)/C(=C/c2ccc(C(=O)Nc3nnc(SCc4ccc(F)c(Cl)c4)s3)cc2)S1 | – |
| 1730 | O=C1NC(=O)/C(=C/c2ccc(C(=O)Nc3nnc(SCc4cc(C(F)(F)F)cc(C(F)(F)F)c4)s3)cc2)S1 | – |
| 1180 | O=C1NC(=O)/C(=C\c2ccc(C(=O)Nc3nnc(SCc4ccccc4C(F)(F)F)s3)cc2)S1 | – |
| 890 | O=C1NC(=O)/C(=C\c2ccc(C(=O)Nc3nnc(SCc4ccc(OC(F)(F)F)cc4)s3)cc2)S1 | – |
| 4680 | Cc1ccccc1CSc1nnc(NC(=O)c2ccc(/C=C3/SC(=O)NC3=O)cc2)s1 | – |
| 2170 | N#Cc1ccccc1CSc1nnc(NC(=O)c2ccc(/C=C3/SC(=O)NC3=O)cc2)s1 | – |
| 590 | O=C1NC(=O)/C(=C\c2ccc(C(=O)Nc3nnc(SCc4ccc(Br)cc4)s3)cc2)S1 | – |
| 650 | COC(=O)c1ccc(CSc2nnc(NC(=O)c3ccc(/C=C4/SC(=O)NC4=O)cc3)s2)cc1 | – |
